Tests used:
Assay type in all cases: in vivo
[1] = tested on: Echinochloa crus-galli (ECHCG); test: Example A post-emergence herbicidal test, ECHCG; conditions: evaluated 14 or 15 days after spraying
Procedure: (§1) Seeds of a variety of test species were sown in standard soil in pots. After cultivation for one day (pre-emergence) or after 10 days cultivation (post-emergence) under controlled conditions in a glasshouse, the plants were sprayed with an aqueous spray solution derived from the formulation of the technical active ingredient in 0.6 ml acetone and 45 ml formulation solution containing 10.6% Emulsogen EL (Registry number 61791-12-6), 42.2% N-methylpyrrolidone, 42.2% dipropylene glycol monomethyl ether (Registry number 34590-94-8) and 0.2% X-77 (Registry number 11097-66-8). The test plants were then grown in a greenhouse under optimum conditions until, 14 or 15 days later for post-emergence and 19 or 20 days for pre-emergence, the test was evaluated (100=total damage to plant; 0=no damage to plant). Alopecurus myosuroides (ALOMY), Avena fatua (AVEFA), Lolium perenne (LOLPE), Setaria faberi (SETFA), Digitaria sanguinalis (DIGSA), Echinochloa crus-galli (ECHCG) Post-Emergence Activity

[2] = tested on: Avena fatua (AVEFA); test: Example B post-emergence herbicidal test, AVEFA; conditions: Avena fatua, 312 h, rate 250 g/ha, evaluated after 13 days, scale 0-100, read-out: Post-emergence activity AVEFA (100=total damage to plant; 0=no damage to plant)
Procedure, shortened: (§2)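 Damage was rated visually 13 days after treatment, where 100 meant total plant damage and 0 none. Treatment was a spray of aqueous solution (acetone/water 50:50, 0.5% Tween 20) applied to plants cultivated 8 days from seed under controlled glasshouse conditions.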

[3] = tested on: Lolium perenne (LOLPE); test: Example B pre-emergence herbicidal test, LOLPE; conditions: Lolium perenne, 312 h, rate 250 g/ha, evaluated after 13 days, 100=total damage to plant, 0=no damage to plant
Procedure, shortened: (§3)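 Pots sown, sprayed day 1 pre-emergence; spray: aqueous dilution of formulation in acetone/water 50:50 + 0.5% Tween 20. Glasshouse 24/16° C, 14 h light, 65% RH, watering twice daily. Visual damage rating at 13 d, 0–100 scale.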

[4] = tested on: Setaria faberi (SETFA); test: Example A post-emergence herbicidal test, SETFA; conditions: evaluated 14 or 15 days after spraying
Procedure: as §1

[5] = tested on: Alopecurus myosuroides (ALOMY); test: Example B pre-emergence herbicidal test, ALOMY; conditions: Alopecurus myosuroides, 312 h, rate 250 g/ha, evaluated after 13 days, 100=total damage to plant, 0=no damage to plant
Procedure, shortened: as §3

[6] = tested on: Lolium perenne (LOLPE); test: Example A post-emergence herbicidal test, LOLPE; conditions: evaluated 14 or 15 days after spraying
Procedure: as §1

[7] = tested on: Echinochloa crus-galli (ECHCG); test: Example B post-emergence herbicidal test, ECHCG; conditions: Echinochloa crus-galli, 312 h, rate 250 g/ha, evaluated after 13 days, scale 0-100, read-out: Post-emergence activity ECHCG (100=total damage to plant; 0=no damage to plant)
Procedure, shortened: as §2

[8] = tested on: Lolium perenne (LOLPE); test: Example B post-emergence herbicidal test, LOLPE; conditions: Lolium perenne, 312 h, rate 250 g/ha, evaluated after 13 days, scale 0-100, read-out: Post-emergence activity LOLPE (100=total damage to plant; 0=no damage to plant)
Procedure, shortened: as §2

[9] = tested on: Alopecurus myosuroides (ALOMY); test: Example B post-emergence herbicidal test, ALOMY; conditions: Alopecurus myosuroides, 312 h, rate 250 g/ha, evaluated after 13 days, scale 0-100, read-out: Post-emergence activity ALOMY (100=total damage to plant; 0=no damage to plant)
Procedure, shortened: as §2

[10] = tested on: Digitaria sanguinalis (DIGSA); test: Example A post-emergence herbicidal test, DIGSA; conditions: evaluated 14 or 15 days after spraying
Procedure: as §1

[11] = tested on: Winter Wheat variety 'Hereward'; test: Example C crop damage test on Winter Wheat, post-emergence, no safener; conditions: Triticum aestivum, 312 h, rate 250 g/ha, evaluated after 13 days, read-out: Winter Wheat (Hereward) damage (100=total damage to plant; 0=no damage to plant)
Procedure, shortened: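 Wheat plants grown 8 days in glasshouse (24/16° C. day/night, 14 h light, 65% humidity) were sprayed post-emergence with compound in acetone/water (50:50) containing 0.5% Tween 20, no safener. Damage scored 13 days later, 0 = none to 100 = total.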

[12] = tested on: Avena fatua (AVEFA); test: Example B pre-emergence herbicidal test, AVEFA; conditions: Avena fatua, 312 h, rate 250 g/ha, evaluated after 13 days, 100=total damage to plant, 0=no damage to plant
Procedure, shortened: as §3

[13] = tested on: Winter Wheat variety 'Hereward' seed treated with cloquintocet mexyl; test: Example C crop damage test on Winter Wheat seed treated with safener cloquintocet mexyl, post-emergence; conditions: rate 250 g/ha, seed treated with cloquintocet mexyl 0.5 grams per kilogram of dry seed, evaluated after 13 days
Procedure, shortened: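 Hereward winter wheat seed treated with cloquintocet mexyl at 0.5 g/kg seed, sown 8 days before post-emergence spray. The spray was made from a formulation in acetone/water 50:50 with 0.5% Tween 20. Grown in a glasshouse at 24/16 °C with 14 h light and 65% humidity; damage scored 0–100 (100 = total) after 13 days.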

[14] = tested on: Avena fatua (AVEFA); test: Example A post-emergence herbicidal test, AVEFA; conditions: evaluated 14 or 15 days after spraying
Procedure: as §1

[15] = tested on: Echinochloa crus-galli (ECHCG); test: Example B pre-emergence herbicidal test, ECHCG; conditions: Echinochloa crus-galli, 312 h, rate 250 g/ha, evaluated after 13 days, 100=total damage to plant, 0=no damage to plant
Procedure, shortened: as §3

[16] = tested on: Alopecurus myosuroides (ALOMY); test: Example A post-emergence herbicidal test, ALOMY; conditions: evaluated 14 or 15 days after spraying
Procedure: as §1

[17] = tested on: Setaria faberi (SETFA); test: Example A pre-emergence herbicidal test, SETFA; conditions: rate 500 g/ha, evaluated 19 or 20 days after spraying
Procedure: as §1, with “Pre-Emergence” for “Post-Emergence”

[18] = tested on: Avena fatua (AVEFA); test: Example A pre-emergence herbicidal test, AVEFA; conditions: rate 500 g/ha, evaluated 19 or 20 days after spraying
Procedure: as §1, with “Pre-Emergence” for “Post-Emergence”

[19] = tested on: Alopecurus myosuroides (ALOMY); test: Example A pre-emergence herbicidal test, ALOMY; conditions: rate 500 g/ha, evaluated 19 or 20 days after spraying
Procedure: as §1, with “Pre-Emergence” for “Post-Emergence”

[20] = tested on: Lolium perenne (LOLPE); test: Example A pre-emergence herbicidal test, LOLPE; conditions: rate 500 g/ha, evaluated 19 or 20 days after spraying
Procedure: as §1, with “Pre-Emergence” for “Post-Emergence”

[21] = tested on: Echinochloa crus-galli (ECHCG); test: Example A pre-emergence herbicidal test, ECHCG; conditions: rate 500 g/ha, evaluated 19 or 20 days after spraying
Procedure: as §1, with “Pre-Emergence” for “Post-Emergence”

[22] = tested on: Digitaria sanguinalis (DIGSA); test: Example A pre-emergence herbicidal test, DIGSA; conditions: rate 500 g/ha, evaluated 19 or 20 days after spraying
Procedure: as §1, with “Pre-Emergence” for “Post-Emergence”

| SMILES | Post-Emergence Activity ECHCG (100=total damage to plant; 0=no damage to plant) ([1]; rate 250 g/ha) | pest or weed control at 250 g/ha [2] [%] | pest or weed control at 250 g/ha [3] [%] | Post-Emergence Activity SETFA (100=total damage to plant; 0=no damage to plant) ([4]; rate 250 g/ha) | pest or weed control at 250 g/ha [5] [%] | Post-Emergence Activity LOLPE (100=total damage to plant; 0=no damage to plant) ([6]; rate 250 g/ha) | pest or weed control at 250 g/ha [7] [%] | pest or weed control at 250 g/ha [8] [%] | pest or weed control at 250 g/ha [9] [%] | Post-Emergence Activity DIGSA (100=total damage to plant; 0=no damage to plant) ([10]; rate 250 g/ha) | crop damage to winter wheat at 250 g/ha [11] [%] | pest or weed control at 250 g/ha [12] [%] | Winter Wheat (Hereward) + cloquintocet mexyl damage (100=total damage to plant; 0=no damage to plant) [13] | Post-Emergence Activity AVEFA (100=total damage to plant; 0=no damage to plant) ([14]; rate 250 g/ha) | pest or weed control at 250 g/ha [15] [%] | Post-Emergence Activity ALOMY (100=total damage to plant; 0=no damage to plant) ([16]; rate 250 g/ha) | other results |
| --- | --- | --- | --- | --- | --- | --- | --- | --- | --- | --- | --- | --- | --- | --- | --- | --- | --- |
| Cc1cc(C)c(C2=C(OC(=O)C(C)(C)C)CC(CC3CCOCC3)C2=O)c(C)c1 (stereo not shown) [Compound P5] | 100 | 90 | 100 | 80 | 100 | 100 | 100 | 100 | 100 | 70 | 60 | 80 | 30 | 100 | 100 | 100 | – |
| CCc1cc(C)cc(CC)c1C1C(=O)CC(CC2CCOCC2)C1=O (stereo not shown) [Compound T1] | – | – | – | – | – | – | – | – | – | – | – | – | – | – | – | – | Post-Emergence Activity ECHCG (100=total damage to plant; 0=no damage to plant) ([1]; rate 125 g/ha): 100; Pre-Emergence Activity SETFA (100=total damage to plant; 0=no damage to plant) [17]: 70; Pre-Emergence Activity AVEFA (100=total damage to plant; 0=no damage to plant) [18]: 90; Post-Emergence Activity SETFA (100=total damage to plant; 0=no damage to plant) ([4]; rate 125 g/ha): 70; Post-Emergence Activity LOLPE (100=total damage to plant; 0=no damage to plant) ([6]; rate 125 g/ha): 100; Pre-Emergence Activity ALOMY (100=total damage to plant; 0=no damage to plant) [19]: 100; Pre-Emergence Activity LOLPE (100=total damage to plant; 0=no damage to plant) [20]: 100; Pre-Emergence Activity ECHCG (100=total damage to plant; 0=no damage to plant) [21]: 80; Pre-Emergence Activity DIGSA (100=total damage to plant; 0=no damage to plant) [22]: 100; Post-Emergence Activity DIGSA (100=total damage to plant; 0=no damage to plant) ([10]; rate 125 g/ha): 100; Post-Emergence Activity AVEFA (100=total damage to plant; 0=no damage to plant) ([14]; rate 125 g/ha): 90; Post-Emergence Activity ALOMY (100=total damage to plant; 0=no damage to plant) ([16]; rate 125 g/ha): 100 |
| Cc1cc(C)c(C2C(=O)CC(CC3CCOCC3)C2=O)c(C)c1 (stereo not shown) [Compound T4] | 100 | 100 | 100 | 90 | 100 | 100 | 100 | 100 | 100 | 90 | 70 | 90 | 40 | 90 | 100 | 100 | – |
| Cc1cc(C)c(C2C(=O)CC(CC3CCOC3)C2=O)c(C)c1 (stereo not shown) [Compound T5] | 80 | 90 | 100 | 30 | 100 | 100 | 100 | 100 | 100 | 50 | 80 | 80 | 20 | 80 | 100 | 100 | – |
| Cc1cc(C)c(C2C(=O)C/C(=C\C3CCOCC3)C2=O)c(C)c1 (stereo not shown) [Compound T8] | 100 | 100 | 100 | 100 | 100 | 100 | 100 | 100 | 100 | 80 | 90 | 100 | 80 | 90 | 100 | 100 | – |

From US9096560B2, “5-heterocyclylalkyl-3-hydroxy-2-phenylcyclopent-2-enones as herbicides” (Syngenta Limited, priority 2008, dated 2015)
